Laboratory results as given in PubChem BioAssay AID1996.
Values after ≈ are worked out from the molar mass of the structure shown.

Settings: buffer; pH 7.4; 200.0 µM

SMILES	solubility kinetic
Cn1c2ccc(F)cc2c2ncn(Cc3ccccn3)c(=O)c21	7.9 µg/mL (≈ 25.6 µM)
O=C(Cc1ccc(Cl)cc1)N1CCN(c2ccccc2)CC1	44.5 µg/mL (≈ 141 µM)
CN1C(=S)SC(/[N+]([O-])=C/c2c(F)cccc2Cl)C1(C)C (stereo not drawn)	> 49.9 µg/mL
CSC1=N/C(=C/c2cccnc2)C(=O)N1Cc1ccccc1	5.2 µg/mL (≈ 16.8 µM)
O=C(CCl)Nc1ccc(S(=O)(=O)NC2=NCCCCC2)cc1	> 51.6 µg/mL
Cc1cccc(C)c1NC(=O)N1CCCCCCC1	38.8 µg/mL (≈ 149 µM)
CCc1cc2cc(C)cc(C)c2[nH]c1=S	3.9 µg/mL (≈ 17.9 µM)
CCN1CC2([N+](=O)[O-])CC=C(Cl)C([N+](=O)[O-])(C1)C2 (stereo not drawn)	28.4 µg/mL (≈ 103 µM)
FC(F)(F)c1ccc(NC(=S)NC2CCCCC2)cc1	2.5 µg/mL (≈ 8.27 µM)
Cc1ccsc1C(=O)OCc1nc2ccsc2c(=O)[nH]1	> 46 µg/mL
c1ccc(-c2nccnc2-c2ccccc2)cc1	21.5 µg/mL (≈ 92.6 µM)
O=S(=O)(NCCc1ccccc1)c1ccc(F)cc1	40.9 µg/mL (≈ 146 µM)
Cc1ccc[n+](C(C)C(=O)c2ccc(Cl)cc2)c1.[Br-] (stereo not drawn)	44.9 µg/mL
CC(=O)c1ccc(N2CCN(C(=O)CCc3ccccc3)CC2)cc1	> 50.5 µg/mL
CCc1ccccc1N1C(=O)C2C3C=CC(CC3)C2C1=O (stereo not drawn)	> 42.2 µg/mL
O=C(Nc1ccc2c(c1)OCCO2)c1ccoc1	35.7 µg/mL (≈ 146 µM)
COc1ccc(-c2cc3nc(CCl)[nH]c(=O)c3s2)cc1	2.8 µg/mL (≈ 9.13 µM)
O=C1OCCN/C1=C\C(=O)c1ccccc1	> 32.6 µg/mL
Cc1ccc(C(=O)CSc2nc(N)cc(=O)[nH]2)cc1C	12.8 µg/mL (≈ 44.2 µM)
CC(=O)n1c(-c2ccccc2)c(-c2ccccc2)n(C)c1=O	> 43.9 µg/mL
CCOc1cccc2sc(=NC(=O)c3ccco3)n(CC(=O)OC)c12	2 µg/mL (≈ 5.55 µM)
Cc1[nH]c2ccc(C(=O)NCc3ccccn3)cc2c1C	> 41.9 µg/mL
COc1ccccc1CN1CCNC(=O)C1CC(=O)O (stereo not drawn)	> 41.7 µg/mL
CN(Cc1ccccc1)C(=O)COc1ccc(Br)cc1Cl	12.6 µg/mL (≈ 34.2 µM)

SMILES	solubility kinetic
O=C(c1ccc(S(=O)(=O)Nc2ccccc2F)cc1)N1CCN(c2ccccn2)CC1	> 66.1 µg/mL
C/C(=C\c1ccccc1)CN1CCN(C(C)C)C(CCO)C1 (stereo not drawn)	> 45.4 µg/mL
O=C(Cc1ccccc1[N+](=O)[O-])NCc1ccco1	> 39 µg/mL
O=C(CN1C(=O)c2ccccc2C1=O)NCc1ccc(C(=O)O)cc1	> 50.7 µg/mL
O=C(NCCO)C(=O)c1c(-c2ccccc2)cc2ccccn12	38.2 µg/mL (≈ 124 µM)
O=C(N/C(=C\c1ccco1)C(=O)N1CCOCC1)c1ccco1	> 47.4 µg/mL
CC1(C)CC(=O)C2=C(C1)OC(N)=C([N+](=O)[O-])C2c1ccc(F)cc1 (stereo not drawn)	> 49.8 µg/mL
COc1cc(OC)c(C=O)c(OC(=O)N(C)C)c1	35.8 µg/mL (≈ 141 µM)
COc1ccccc1Cn1c(=S)[nH]c2ccc(F)cc2c1=O	1.6 µg/mL (≈ 5.06 µM)
Cc1c(Cl)cccc1NC(=S)N1CCCCCC1	29.3 µg/mL (≈ 104 µM)
Cc1nc(NC(=O)CSc2nnc(C3CC3)n2N)c(Cl)cc1Cl	> 56 µg/mL
Clc1ncc(CN2CCN(c3ccccc3)CC2)s1	40.9 µg/mL (≈ 139 µM)
CC1CN(c2nc3ccccc3nc2NS(=O)(=O)c2ccccc2)CC(C)O1 (stereo not drawn)	> 59.8 µg/mL
CCCC1Cc2c(sc(N)c2C#N)CO1 (stereo not drawn)	> 33.3 µg/mL
COc1cccc2cc(-c3nc4ccccc4[nH]3)c(=O)oc12	< 0.3 µg/mL
CC1CCCN(C(=O)COC(=O)Cc2c[nH]c3ccccc23)C1 (stereo not drawn)	> 47.2 µg/mL
CC1CCCC(NC(=O)COC(=O)COc2ccc(Br)cc2)C1C (stereo not drawn)	11.6 µg/mL (≈ 29.1 µM)
O=C(O)C1C2C=CC(C2)C1C(=O)NCc1ccco1 (stereo not drawn)	36.2 µg/mL (≈ 139 µM)
O=C(COc1ccccc1F)Nc1nc(-c2ccccn2)cs1	8.8 µg/mL (≈ 26.7 µM)
COC(=O)c1scc(S(=O)(=O)C(C)(C)C)c1-n1cccc1	35.6 µg/mL (≈ 109 µM)
CN1C=CC=C/C1=C1/N=C(c2ccccc2)OC1=O	> 37.8 µg/mL
O=C(C(=O)N1CCCC1)c1c(-c2ccccc2)[nH]c2ccccc12	> 47.8 µg/mL
Cc1c(Cl)cnc(NC(=O)COC(=O)[C@@H](NC(=O)c2ccco2)C(C)C)c1Cl	> 64.2 µg/mL
N#Cc1ccc(OCC(=O)NC2CCCCCC2)cc1	> 40.9 µg/mL

SMILES	solubility kinetic
O=C(NC1CCCC1)c1ccc(Cl)s1	30.7 µg/mL (≈ 134 µM)
Cc1ccc(NC(=O)CN2C(=O)C3CC=C(Cl)CC3C2=O)cc1 (stereo not drawn)	> 49.9 µg/mL
Cc1ccc(S(=O)(=O)NCCOc2nc(N(C)C)nc(N(C)C)n2)cc1	52.8 µg/mL (≈ 139 µM)
Cc1[nH]c(=O)[nH]c(=S)c1C(=O)Nc1ccc(Cl)c(Cl)c1	36.9 µg/mL (≈ 112 µM)
Cn1ccnc1SCC(=O)c1ccc2ccccc2c1	35.8 µg/mL (≈ 127 µM)
CC(OC(=O)c1cnccn1)C(=O)c1ccccc1 (stereo not drawn)	> 38.4 µg/mL
O=C1NCCCCC1NS(=O)(=O)c1ccc(Cl)cc1 (stereo not drawn)	> 45.4 µg/mL
O=C(Nc1ccc(S(=O)(=O)Nc2ncccn2)cc1)C(F)(F)F	> 51.9 µg/mL
COc1ccc(CNC(=O)CSC(=S)N2CCCC2)cc1	16.2 µg/mL (≈ 49.9 µM)
Cc1ccc(C)c(NC(=O)COC(=O)c2ccc[n+]([O-])c2)c1	> 45 µg/mL
CCOc1ccc(N/C(C)=C/C(=O)c2ccc3c(c2)OCCO3)cc1	0.8 µg/mL (≈ 2.36 µM)
COc1ccccc1NC(=S)NC(=O)CCc1ccccc1	0.7 µg/mL (≈ 2.23 µM)
Cc1ccc(S(=O)(=O)Nc2ccc3c(c2)nc(C)n3C)cc1	0.8 µg/mL (≈ 2.54 µM)
COc1ccc(-n2c(C)ccc2-c2ccccc2)cn1	5.9 µg/mL (≈ 22.3 µM)
COc1cc(OC)cc(C(=O)NC(C(=O)N2CCC2)C(C)C)c1 (stereo not drawn)	> 48.1 µg/mL
CC1(C)C(=O)Nc2ccccc2N1C(=O)COC(=O)c1cc(Cl)cc(Cl)c1	2.8 µg/mL (≈ 6.88 µM)
CCS(=O)(=O)c1ccc2oc(Nc3cccc(OC)c3)nc2c1	8.2 µg/mL (≈ 24.7 µM)
CN1CCN(CCCNC(=O)CN2C(=O)COc3ccccc32)CC1	37.6 µg/mL (≈ 109 µM)
OCCCNc1ncnc2oc(-c3ccccc3)c(-c3ccccc3)c12	17.5 µg/mL (≈ 50.7 µM)
Cc1ccc(OCC(=O)N2CC(C)OC(C)C2)c([N+](=O)[O-])n1 (stereo not drawn)	> 46.4 µg/mL
Cc1cc(NC(=O)COc2ccc3ccccc3c2)no1	0.6 µg/mL (≈ 2.13 µM)
Cl.Oc1ccccc1CNCC12CC3CC(CC(C3)C1)C2	> 46.2 µg/mL
CC1(C)CN=C(N(C(=O)Nc2ccccc2)c2ccccc2F)S1	8.3 µg/mL (≈ 24.2 µM)
COc1ccc(Cl)cc1C(=O)Nc1nc2ccccc2[nH]1	1.2 µg/mL (≈ 3.98 µM)

SMILES	solubility kinetic
COc1cccc(C(=O)CC(=O)C(=O)Nc2ccc(C)cc2Cl)c1	8.1 µg/mL (≈ 23.4 µM)
Cc1ccc(NS(=O)(=O)c2cccs2)nc1	> 38.1 µg/mL
CC(OC(=O)c1ccc(Cl)nc1)C(=O)Nc1ccc2c(c1)OCO2 (stereo not drawn)	11.9 µg/mL (≈ 34.1 µM)
O=C(COc1ccc(F)cc1Cl)N1CCN(C(=O)c2cccs2)CC1	> 57.4 µg/mL
CC1CC(C)(C)CC2(C1)NC(=O)N(CC(=O)N1CCN(S(=O)(=O)c3cccc(F)c3)CC1)C2=O (stereo not drawn)	4.9 µg/mL (≈ 9.91 µM)
COc1ccccc1Nc1nc(NCCC(C)C)nc(N)c1[N+](=O)[O-]	< 0.1 µg/mL
CC(C)(C)OC(=O)N1CCC(CNC(=O)c2ccccc2)CC1	> 47.8 µg/mL
CC1(C)C(C#N)=C(N)Oc2c1c(=O)oc1ccccc21	1.1 µg/mL (≈ 4.1 µM)
O=S(=O)(Nc1cccc2ccccc12)c1ccccc1	8.6 µg/mL (≈ 30.4 µM)
CCOC(=O)c1sc(N)c(C(=O)OCC)c1C	4.4 µg/mL (≈ 17.1 µM)
CCOc1ncccc1C(=O)Nc1nc(C(C)(C)C)cs1	0.6 µg/mL (≈ 1.96 µM)
O=C(/C=C/Nc1ccc(F)cc1F)c1ccc(Br)cc1	< 0.7 µg/mL
CC(=O)NC(=O)c1cnn(-c2ccccc2)c1N	> 36.6 µg/mL
CC(NC(=O)COc1ccccc1Cl)c1ccccc1 (stereo not drawn)	> 43.5 µg/mL
S=c1nc(-c2ccc(Br)cc2)[nH]c2ccccc12	0.7 µg/mL (≈ 2.21 µM)
Cc1ccc(C2CCN(C(=S)NC3CCCCC3)C2)cc1 (stereo not drawn)	1.3 µg/mL (≈ 4.3 µM)
CC1(C)C(=O)OC(c2ccc([N+](=O)[O-])cc2)C(C)(C)C1=O (stereo not drawn)	2.5 µg/mL (≈ 8.58 µM)
O=C(NC(=S)NC1CCCc2ccccc21)c1ccc(F)cc1 (stereo not drawn)	< 0.4 µg/mL
O=C(CCCc1ccccc1)Nc1ccc(Br)cc1F	< 0.7 µg/mL
COc1ccc(NC(=O)CCC(=O)c2cc(C)sc2C)cc1	6.3 µg/mL (≈ 19.8 µM)
Cc1ccc(NC(=O)CO/N=C/c2ccccc2C)c(C)c1	8.7 µg/mL (≈ 29.4 µM)
Cn1c(=O)[nH]c(=O)c2c1nc(N1CCCC1)n2CCO	> 41.9 µg/mL
NC(=O)c1cc[n+](CC(=O)NC(=O)Nc2ccccc2)cc1	30.5 µg/mL
O=C(CN1CCN(c2ccccc2)CC1)N1CCc2ccccc21	7 µg/mL (≈ 21.8 µM)

SMILES	solubility kinetic
OC(c1ccccc1)c1nccc2ccccc12 (stereo not drawn)	> 35.3 µg/mL
O=C(NC1(C(F)(F)F)NC(=O)N(C2CCCCC2)C1=O)C1CC1 (stereo not drawn)	> 50 µg/mL
O=C(COC(=O)CCc1c[nH]c2ccccc12)NCc1ccc2c(c1)OCO2	43 µg/mL (≈ 113 µM)
Cc1ccc(OCCNCc2ccccc2)c(C)c1.O=C(O)C(=O)O	45.8 µg/mL
O=C(O)C1C2CCC(O2)C1C(=O)Nc1ccc(Cl)cc1F (stereo not drawn)	> 47.1 µg/mL
Cc1cnc(C(=O)OCC(=O)NCc2cccc(Cl)c2)cn1	> 48 µg/mL
CC1(C)CC(=O)C=C(NCc2cccc(C(F)(F)F)c2)C1	> 44.6 µg/mL
Cc1cc(C)c(S(=O)(=O)c2ccccc2F)c(=O)[nH]1	> 42.2 µg/mL
Cn1cc(/C=C2\C(=O)NC(=O)N(c3ccccc3)C2=O)c2ccccc21	1.6 µg/mL (≈ 4.63 µM)
CCOc1ccccc1/C=C/C(=O)N1CCN(C(=O)c2ccco2)CC1	> 53.2 µg/mL
O=C(Nc1cccc(Cl)c1)N1C[C@H]2C[C@@H](C1)c1cccc(=O)n1C2	> 51.6 µg/mL
O=C(CC1SCCNC1=O)Nc1cccc([N+](=O)[O-])c1 (stereo not drawn)	> 44.3 µg/mL
O=[N+]([O-])c1cc(Cl)ccc1Sc1ccccn1	23.3 µg/mL (≈ 87.4 µM)
Cc1ccc(N(Cc2ccccc2O)C(=O)c2ccccc2F)cc1	< 0.7 µg/mL
CNC(=O)c1c(NC(=O)c2ccc3ncsc3c2)sc(C)c1C	2 µg/mL (≈ 5.79 µM)
COc1ccc(NS(=O)(=O)c2cc(N)ccc2N2CCCC2)cc1	47.6 µg/mL (≈ 137 µM)
CC(C)CN1C(=O)c2ccc(NC(=O)Cc3ccccc3)cc2C1=O	< 0.4 µg/mL
COCCn1c(N)c(Sc2ccc(C)cc2)c(=O)[nH]c1=O	> 46.1 µg/mL
CSc1ccccc1NC(=O)C1=COCCO1	> 37.7 µg/mL
CCc1ccc2oc(C(=O)N3CCN(C)CC3)cc(=O)c2c1	> 45.1 µg/mL
CC(=O)c1ccccc1NC(=O)c1ccc(OCc2c(C)noc2C)cc1	2.6 µg/mL (≈ 7.13 µM)
O=C(Cn1c(=O)oc2ccccc21)Nc1ccccc1C(F)(F)F	10 µg/mL (≈ 29.7 µM)
